According to patent publication US20030008897A1, “Method of controlling weight gain associated with therapeutic drugs” (priority 2000, published 2003):

Experiments:
[1] = biological target: [3H]Noradenaline reuptake (Rattus norvegicus, UniProt Q9WTR4); test: in vitro [3H]noradrenaline reuptake inhibition in rat brain tissue; type: biochemical; details: means of ≧3 separate determinations
[2] = system: female Sprague-Dawley rats; test: clozapine-induced hyperphagia (food intake) in rats; type: in vivo, rat; details: for Mean food intake ± SEM: 3 mg/kg orally, food intake over 2 h, n=10, vehicle 6.5 ± 0.9
Description: Experiments were performed in individually-housed female Sprague-Dawley rats with free access to food (powdered rat chow containing 20% lard) and tap water at all times. On the day of the experiment, animals (n=10) were dosed orally with vehicle; the neuroleptic clozapine 3 mg/kg; sibutramine 3 mg/kg or sibutramine plus clozapine 3 mg/kg; and their food intake was monitored over 2 h.

SMILES: CC(NC(C)(C)C)C(=O)c1cccc(Cl)c1 (stereo not shown) [Bupropion]
- Ki [1]: 2.59 µM

SMILES: CN1CCN(C2=Nc3cc(Cl)ccc3Nc3ccccc32)CC1 [Clozapine]
- Mean food intake ± SEM [2]: 9.3 ± 0.7 g/kg

SMILES: CC(C)CC(N(C)C)C1(c2ccc(Cl)cc2)CCC1 (stereo not shown) [Sibutramine, N,N-dimethyl-1-[1-(4-chlorophenyl)cyclobutyl]-3-methylbutylamine]
- Mean food intake ± SEM [2]: 1.7 ± 0.6 g/kg
- effect on food intake compared to vehicle-treated control group ([2]; 3 mg/kg po, over 2 h): significantly decreased food intake
